In patent US20240238269A1:
pEC50: −log10 of the molar value. Values after ≈ are worked out from the molar mass of the structure shown. Where two headings read alike, the source gives them in different places.

Assays:
[1] = test system: HPV6; test: HPV6 transient transfection reporter plasmid replication assay; details: for pEC50 / EC90: Alphapapillomavirus 10, C-33-A
[2] = test system: HPV18; test: microbe, parasite or virus in culture; details: human papillomavirus 18, C-33-A
[3] = test system: HPV16; test: microbe, parasite or virus in culture; details: Human papillomavirus 16, C-33-A
[4] = test system: HPV11; test: microbe, parasite or virus in culture; details: human papillomavirus 11, C-33-A
[5] = test system: Tacaribe Virus (TCRV); test: microbe, parasite or virus in culture; format: cell-based
[6] = test system: Huh7; details: human
[7] = test system: HPV16; details: Human Papillomavirus 16 KP212151.1, C-33 A
[8] = test system: Middle East Respiratory Syndrome Coronavirus (MERS-COV); test: microbe, parasite or virus in culture; format: cell-based; details: Vero 76
[9] = test system: Varicella-zoster Virus; test: Antiviral activity against Varicella-zoster Virus; format: cell-based
[10] = test system: Influenza A H1N1; test: Antiviral activity against Influenza A H1N1; format: cell-based
[11] = test system: Rift Valley Fever Virus (RVFV); test: microbe, parasite or virus in culture; format: cell-based
[12] = in vitro; details: African green monkey
[13] = test system: Dengue Virus 2; test: Antiviral activity against Dengue Virus 2; format: cell-based
[14] = in vitro; details: human
[15] = test system: human papillomavirus (HPV); test: Antiviral activity against human papillomavirus (HPV), overall conclusion; format: cell-based
Protocol: When the SI50 value>10, the compound was determined to be active against the virus.

[16] = test system: HPV11; details: Human Papillomavirus 11 HE611260.1, C-33 A
[17] = test system: Herpes Simplex Virus 2; test: Antiviral activity against Herpes Simplex Virus 2; format: cell-based
[18] = in vitro; details: human; remark: listed apart in the source
[19] = test system: Herpes Simplex Virus 1; test: Antiviral activity against Herpes Simplex Virus 1; format: cell-based
[20] = in vitro; details: dog
[21] = test system: Human Coronavirus (α) 229E; test: Antiviral activity against Human Coronavirus (α); format: cell-based
[22] = test system: other viruses; test: Antiviral activity against other (non-HPV) viruses, overall conclusion; format: cell-based
[23] = test system: HPV18; details: Human Papillomavirus 18 KC470230.1, C-33 A
[24] = test system: Chikungunya virus (CHIKV); test: Antiviral activity against Chikungunya Virus; format: cell-based
[25] = in vitro; details: human; remark: listed apart in the source
[26] = test system: Novel coronavirus (SARS-COV-2); test: Antiviral activity against Novel Coronavirus; format: cell-based
[27] = test system: Human Coronavirus (β) OC43; test: Antiviral activity against Human Coronavirus (β); format: cell-based
[28] = HPV16 strain KP212151.1, C-33 A, concentration range 0.001-250 μM
[29] = Human Papillomavirus 6 FR751330.1, C-33 A
[30] = Human Papillomavirus 16 KP212151.1, C-33 A, 0.001-250 μM
[31] = Human Papillomavirus 16 KP212151.1, C-33 A, 0.048-150 μM

With `Nc1nc2c(ncn2CCOCP(=O)(O)O)c(=O)[nH]1` [9-[2-(phosphonomethoxy)ethyl]guanine] the pEC50 [1] was 6.25, the EC90 [1] was 6.35 µM and the pEC50 [2] was 6.20. The EC90 [2] was > 150 µM, the pEC50 [3, 28] was 6.55 and the EC90 [3, 28] was 2300 nM. The pEC50 [4] was 5.99 and the EC90 [4] was 4.47 µM.

In the case of `O=[N+]([O-])c1ccc(O)c2ncccc12`, the pEC50 [1] was 6.07, the EC90 [1] was 5.41 µM and the “SI50 (CC50/EC50)” value [1, 29] was 55. For the same compound, the SI90 [1, 29] was 9, the EC50 ([5]; Mammarenavirus tacaribeense, Vero) was < 0.1 µg/mL and the “SI50 (CC50/EC50)” value ([5]; Tacaribe Virus TRVL 11573, Vero) was 1. The CC50 [6] was 0.4 µg/mL (≈ 2.1 µM), the “SI50 (CC50/EC50)” value ([7]; 0.001-250 μM) was 297 and the SI90 ([7]; 0.001-250 μM) was 143. For the same compound, the “SI50 (CC50/EC50)” value ([7]; 0.048-150 μM) was 23, the SI90 ([7]; 0.048-150 μM) was 13 and the “SI50 (CC50/EC50)” value ([8]; MERS Coronavirus EMC) was 0. The EC50 ([8]; Middle East respiratory syndrome-related coronavirus) was > 0.32 µg/mL, the “SI50 (CC50/EC50)” value [9] was <3 and the pEC50 ([9]; Human alphaherpesvirus 3) was < 6.62. For the same compound, the “SI50 (CC50/EC50)” value [10] was 3.8, the EC50 ([10]; Influenza A virus, H1N1, MDCK) was 0.32 µg/mL (≈ 1.68 µM) and the “SI50 (CC50/EC50)” value ([11]; Rift Valley Fever Virus MP-12, Vero 76) was 1. The EC50 ([11]; Rift Valley fever virus, Vero 76) was > 0.16 µg/mL, the CC50 [12] was < 0.1 µg/mL and the “SI50 (CC50/EC50)” value [13] was 1.3. For the same compound, the EC50 ([13]; Dengue virus, Huh-7) was 0.32 µg/mL (≈ 1.68 µM), the pEC50 [2] was 6.00 and the EC90 [2] was 3.99 µM. For the same compound, the CC50 at 48 h [14] was 55.5 µM, the “antiviral activity compared with the positive control drug” value ([15]; HPV, Tables 1 and 2) was “better than that of the positive control drug” and the “inhibitory activity against HPV” value ([15]; active when SI50 value>10) was “specific inhibitory activity against HPV”. The “SI50 (CC50/EC50)” value [16] was 53, the SI90 [16] was 19 and the “SI50 (CC50/EC50)” value [17] was <4. The pEC50 ([17]; Human alphaherpesvirus 2) was < 5.92, the CC50 [18] was 0.42 µg/mL (≈ 2.21 µM) and the “SI50 (CC50/EC50)” value [19] was <3.0. For the same compound, the pEC50 ([19]; Human alphaherpesvirus 1) was < 5.92, the pEC50 [3, 30] was 6.59 and the EC90 [3, 30] was 540 nM. The pEC50 [3, 31] was 5.55, the EC90 [3, 31] was 5110 nM and the CC50 [20] was 1.2 µg/mL (≈ 6.31 µM). For the same compound, the “SI50 (CC50/EC50)” value [21] was 1.3, the EC50 ([21]; unidentified human coronavirus, Huh-7) was 0.32 µg/mL (≈ 1.68 µM) and the “inhibitory activity against other viruses” value [22] was “not observed against other viruses”. The “SI50 (CC50/EC50)” value [23] was 64, the SI90 [23] was 16 and the “SI50 (CC50/EC50)” value [24] was 0. The EC50 ([24]; Chikungunya virus, Vero 76) was > 0.86 µg/mL, the CC50 [25] was 0.37 µg/mL (≈ 1.95 µM) and the “SI50 (CC50/EC50)” value [26] was 3.1. For the same compound, the EC50 ([26]; Severe acute respiratory syndrome coronavirus 2, Vero 76) was 0.32 µg/mL (≈ 1.68 µM), the pEC50 [4] was 5.98 and the EC90 [4] was 2.99 µM. For the same compound, the “SI50 (CC50/EC50)” value [27] was 0 and the EC50 ([27]; unidentified human coronavirus, OC43) was > 0.37 µg/mL.
